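At the GI50, growth is halved. TGI denotes the concentration required for complete inhibition of growth.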
Key:
Test in all cases: NCI anticancer screen, dose series, 384-well format
[1] = system: CAKI-1 renal
[2] = system: NCI-H322M lung
[3] = system: BT-549 breast
[4] = system: HCT-116 colon
[5] = system: A549 NSCLC
[6] = system: OVCAR-3 ovarian
[7] = system: M14 melanoma
[8] = system: PC-3 prostate
[9] = system: SK-OV-3 ovarian
[10] = system: LOX IMVI melanoma
[11] = system: UACC-257 melanoma
[12] = system: SW-620 colon
[13] = system: MALME-3M melanoma
[14] = system: SF-539 CNS
[15] = system: NCI-H460 NSCLC
[16] = system: SK-MEL-5 melanoma
[17] = system: 786-0 renal
[18] = system: MDA-MB-435 melanoma
[19] = system: HOP-92 NSCLC
[20] = system: IGROV1 ovarian
[21] = system: NCI/ADR-RES ovarian
[22] = system: MCF7 breast
[23] = system: HL-60(TB) leukemia
[24] = system: HCT-15 colon
[25] = system: K-562 leukemia
[26] = system: NCI-H23 lung
[27] = system: KM12 colon
[28] = system: HT29 colon
[29] = system: SK-MEL-28 melanoma
[30] = system: A498 renal
[31] = system: SF-295 CNS
[32] = system: MDA-MB-231 breast
[33] = system: NCI-H522 lung
[34] = system: ACHN renal
[35] = system: SF-268 CNS
[36] = system: RPMI-8226 leukemia
[37] = system: HCC-2998 colon
[38] = system: DU-145 prostate
[39] = system: SNB-75 CNS
[40] = system: RXF 393 renal
[41] = system: UO-31 renal
[42] = system: UACC-62 melanoma
[43] = system: SN12C renal
[44] = system: HOP-62 NSCLC
[45] = system: OVCAR-8 ovarian
[46] = system: T-47D breast
[47] = system: MDA-MB-468 breast
[48] = system: MOLT-4 leukemia
[49] = system: TK-10 renal
[50] = system: EKVX NSCLC
[51] = system: OVCAR-5 ovarian
[52] = system: U251 glioblastoma
[53] = system: OVCAR-4 ovarian
[54] = system: HS 578T breast
[55] = system: NCI-H226 lung
[56] = system: SNB-19 CNS
[57] = system: COLO 205 colon
[58] = system: CCRF-CEM leukemia
[59] = system: SR leukemia

Compound: O=C(Nc1cccc(Cl)c1)Nc1ncc(CCNc2ncnc3ccsc23)s1
- GI50 [1]: 1.15 µM
- TGI [1]: 14.1 µM
- GI50 [2]: 6.64 µM
- TGI [2]: 19.6 µM
- GI50 [3]: 1.07 µM
- TGI [3]: 11.4 µM
- GI50 [4]: 0.754 µM
- TGI [4]: 14.5 µM
- GI50 [5]: 0.121 µM
- TGI [5]: 15.4 µM
- GI50 [6]: 0.174 µM
- TGI [6]: 15 µM
- GI50 [7]: 1.79 µM
- TGI [7]: 14.8 µM
- GI50 [8]: 3.15 µM
- TGI [8]: 13.2 µM
- GI50 [9]: 5.02 µM
- TGI [9]: 19 µM
- GI50 [10]: 1.25 µM
- TGI [10]: 13.8 µM
- GI50 [11]: 4.81 µM
- TGI [11]: 18.3 µM
- GI50 [12]: 14.6 µM
- TGI [12]: 27.8 µM
- GI50 [13]: 6.41 µM
- TGI [13]: 19.5 µM
- GI50 [14]: 0.306 µM
- TGI [14]: 14.7 µM
- GI50 [15]: 0.0433 µM
- TGI [15]: 10.6 µM
- GI50 [16]: 1.08 µM
- TGI [16]: 2.53 µM
- GI50 [17]: 1.97 µM
- TGI [17]: 11.4 µM
- GI50 [18]: 10 µM
- TGI [18]: 21.6 µM
- GI50 [19]: 3.53 µM
- TGI [19]: 18.4 µM
- GI50 [20]: 3.39 µM
- TGI [20]: 16 µM
- GI50 [21]: 2.44 µM
- TGI [21]: 11 µM
- GI50 [22]: 1.49 µM
- TGI [22]: 13 µM
- GI50 [23]: < 0.01 µM
- TGI [23]: 3.63 µM
- GI50 [24]: 1.47 µM
- TGI [24]: 15.6 µM
- GI50 [25]: 1.34 µM
- TGI [25]: 14.1 µM
- GI50 [26]: 2.59 µM
- TGI [26]: 16 µM
- GI50 [27]: 0.118 µM
- TGI [27]: 13.2 µM
- GI50 [28]: 2.42 µM
- TGI [28]: 14.5 µM
- GI50 [29]: 10.4 µM
- TGI [29]: 22.2 µM
- GI50 [30]: 0.839 µM
- TGI [30]: 18.5 µM
- GI50 [31]: 2.17 µM
- TGI [31]: 18.1 µM
- GI50 [32]: 8.07 µM
- TGI [32]: 20.8 µM
- GI50 [33]: 0.356 µM
- TGI [33]: 12.1 µM
- GI50 [34]: 1.52 µM
- TGI [34]: 17.3 µM
- GI50 [35]: < 0.01 µM
- TGI [35]: 0.781 µM
- GI50 [36]: 0.308 µM
- TGI [36]: 11.5 µM
- GI50 [37]: 10.3 µM
- TGI [37]: 22 µM
- GI50 [38]: 4.52 µM
- TGI [38]: 18.1 µM
- GI50 [39]: 4.06 µM
- TGI [39]: 17 µM
- GI50 [40]: 0.0169 µM
- TGI [40]: 2.55 µM
- GI50 [41]: 3.5 µM
- TGI [41]: 19.7 µM
- GI50 [42]: 1 µM
- TGI [42]: 16 µM
- GI50 [43]: 3.01 µM
- TGI [43]: 18.2 µM
- GI50 [44]: 0.356 µM
- TGI [44]: 11 µM
- GI50 [45]: 2.2 µM
- TGI [45]: 12 µM
- GI50 [46]: 0.228 µM
- TGI [46]: 2.36 µM
- GI50 [47]: 0.0283 µM
- TGI [47]: 0.242 µM
- GI50 [48]: < 0.01 µM
- GI50 [49]: 9.81 µM
- TGI [49]: 21.6 µM
- GI50 [50]: 1.68 µM
- TGI [50]: 16.1 µM
- GI50 [51]: 8.83 µM
- TGI [51]: 21.2 µM
- GI50 [52]: 7.52 µM
- TGI [52]: 20.7 µM
- GI50 [53]: 9.02 µM
- TGI [53]: 21.3 µM
- GI50 [54]: 0.104 µM
- TGI [54]: 6.01 µM
- GI50 [55]: 2.94 µM
- TGI [55]: 16.3 µM
- GI50 [56]: 11.7 µM
- TGI [56]: 24 µM

Compound: NC(=O)[C@H]1CCN(c2ncnc(N)c2F)C[C@@H]1N1CCC[C@@H](Nc2cc(Cl)cc(C(F)(F)F)c2)C1=O
- GI50 [1]: 11.5 µM
- TGI [1]: 54.3 µM
- GI50 [2]: 21.3 µM
- TGI [2]: 52 µM
- GI50 [57]: 7.06 µM
- TGI [57]: 21.5 µM
- GI50 [3]: 15.6 µM
- TGI [3]: 31.6 µM
- GI50 [4]: 9.04 µM
- TGI [4]: 22 µM
- GI50 [5]: 10.3 µM
- TGI [5]: 25 µM
- GI50 [6]: 16.3 µM
- TGI [6]: 35.4 µM
- GI50 [7]: 10.9 µM
- TGI [7]: 24.4 µM
- GI50 [8]: 11.6 µM
- TGI [8]: 46.8 µM
- GI50 [9]: 6.43 µM
- TGI [9]: 40.1 µM
- GI50 [10]: 11.2 µM
- TGI [10]: 23.4 µM
- GI50 [11]: 14.9 µM
- TGI [11]: 28.5 µM
- GI50 [12]: 15.2 µM
- TGI [12]: 31.9 µM
- GI50 [13]: 14.5 µM
- TGI [13]: 28.5 µM
- GI50 [14]: 14.5 µM
- TGI [14]: 33.8 µM
- GI50 [15]: 13.4 µM
- TGI [15]: 27.1 µM
- GI50 [16]: 9.85 µM
- TGI [16]: 21.6 µM
- GI50 [17]: 15.6 µM
- TGI [17]: 53.4 µM
- GI50 [18]: 19.9 µM
- TGI [18]: 67.1 µM
- GI50 [19]: 13.8 µM
- TGI [19]: 33.7 µM
- GI50 [20]: 2.34 µM
- TGI [20]: 17.4 µM
- GI50 [21]: 47.6 µM
- TGI [21]: > 100 µM
- GI50 [22]: 14.5 µM
- TGI [22]: 36.3 µM
- GI50 [23]: 10.8 µM
- TGI [23]: 22.7 µM
- GI50 [24]: 8.54 µM
- TGI [24]: 32.7 µM
- GI50 [25]: 8.33 µM
- TGI [25]: 20.9 µM
- GI50 [26]: 14.8 µM
- TGI [26]: 32.2 µM
- GI50 [27]: 4.29 µM
- TGI [27]: 30.7 µM
- GI50 [28]: 7.05 µM
- TGI [28]: 22 µM
- GI50 [29]: 15.4 µM
- TGI [29]: 32.5 µM
- GI50 [30]: 12.5 µM
- TGI [30]: 29.2 µM
- GI50 [31]: 14.5 µM
- TGI [31]: 31.6 µM
- GI50 [32]: 10.7 µM
- TGI [32]: 39.7 µM
- GI50 [33]: 5.3 µM
- TGI [33]: 17.9 µM
- GI50 [34]: 7.86 µM
- TGI [34]: 25.9 µM
- GI50 [35]: 3.26 µM
- TGI [35]: 10.5 µM
- GI50 [36]: 11 µM
- TGI [36]: 23.1 µM
- GI50 [37]: 13.6 µM
- TGI [37]: 28.5 µM
- GI50 [38]: 15.6 µM
- TGI [38]: 53.1 µM
- GI50 [39]: 12.5 µM
- TGI [39]: 34.2 µM
- GI50 [40]: 3.44 µM
- TGI [40]: 13.4 µM
- GI50 [41]: 20.3 µM
- TGI [41]: 57.4 µM
- GI50 [58]: 10.2 µM
- TGI [58]: 22.1 µM
- GI50 [42]: 6.7 µM
- TGI [42]: 19.7 µM
- GI50 [43]: 8.02 µM
- TGI [43]: 38.4 µM
- GI50 [44]: 13.6 µM
- TGI [44]: 35.8 µM
- GI50 [45]: 21.5 µM
- TGI [45]: 73.6 µM
- GI50 [46]: 6.32 µM
- TGI [46]: 23.2 µM
- GI50 [47]: 2.21 µM
- TGI [47]: 11.9 µM
- GI50 [48]: 1.85 µM
- TGI [48]: 6.1 µM
- GI50 [49]: 14.8 µM
- TGI [49]: 37.5 µM
- GI50 [50]: 12.2 µM
- TGI [50]: 39.4 µM
- GI50 [51]: 12.9 µM
- TGI [51]: 40.2 µM
- GI50 [52]: 17.2 µM
- TGI [52]: 60 µM
- GI50 [53]: 19.9 µM
- TGI [53]: 64.8 µM
- GI50 [54]: 17.4 µM
- TGI [54]: 39.3 µM
- GI50 [55]: 10.9 µM
- TGI [55]: 34.5 µM
- GI50 [56]: 30 µM
- TGI [56]: > 100 µM

Compound: CC(C)(O)c1ccc(N2CCN(c3nnc(Cc4ccccc4)c4ccccc34)CC2)nc1
- GI50 [2]: 8.82 µM
- GI50 [57]: 4.39 µM
- GI50 [3]: 6.9 µM
- GI50 [5]: 5.79 µM
- GI50 [7]: 8.59 µM
- GI50 [8]: 9.46 µM
- GI50 [10]: 9.67 µM
- GI50 [11]: 5.3 µM
- GI50 [13]: 3.24 µM
- GI50 [16]: 2.17 µM
- TGI [16]: 4.19 µM
- GI50 [17]: 6.92 µM
- GI50 [19]: 8.09 µM
- GI50 [21]: 3.02 µM
- GI50 [22]: 7.42 µM
- GI50 [23]: 2.68 µM
- TGI [23]: 5.16 µM
- GI50 [24]: 7.34 µM
- GI50 [25]: 4.85 µM
- GI50 [26]: 4.38 µM
- GI50 [28]: 9.38 µM
- GI50 [31]: 7.65 µM
- GI50 [32]: 3.22 µM
- GI50 [33]: 6.23 µM
- GI50 [36]: 2.18 µM
- TGI [36]: 5.27 µM
- GI50 [38]: 5.86 µM
- GI50 [40]: 6.29 µM
- GI50 [41]: 6.13 µM
- GI50 [58]: 3.83 µM
- GI50 [45]: 5.64 µM
- GI50 [46]: 1.92 µM
- TGI [46]: 6.25 µM
- GI50 [47]: 1.62 µM
- TGI [47]: 4.37 µM
- GI50 [48]: 2.07 µM
- TGI [48]: 3.86 µM
- GI50 [50]: 4.39 µM
- GI50 [59]: 2.08 µM
- TGI [59]: 5.25 µM
- GI50 [53]: 3.75 µM
- GI50 [55]: 6.6 µM

Reference: PubChem BioAssay (NCI)
